System: patients with Alzheimer's disease
Assay: Phase 3 study AB09004: change from baseline in ADCS-ADL score
Format: in vivo, human
Design: key to δLSM (ADCS-ADL): LSM difference in ADCS-ADL change; positive = improvement
Details: for δLSM (ADCS-ADL) / ΔLSM (ADCS-ADL): 4.5 mg/kg/day; for δLSM (ADCS-ADL): week 24 from baseline; for ΔLSM (ADCS-ADL): vs placebo, week 24; for improved benefit relative to complementary subpopulation: ΔLSM (ADCS-ADL)
Procedure: An international, multicenter, randomized, double-blind, placebo-controlled phase 3 study was conducted with the objective to evaluate oral masitinib at a dose of 4.5 mg/kg/day as a treatment for Alzheimer's disease.
Eligible patients, aged at least 50 years, were diagnosed with dementia of Alzheimer's type according to Diagnostic and Statistical Manual of Mental Disorders (DSM)-IV criteria, and probable Alzheimer's disease according to NINCDS-ADRDA (National Institute of Neurological and Communicative Diseases and Stroke/Alzheimer's Disease and Related Disorders Association) criteria. […] Patients with any other cause of dementia not due to Alzheimer's disease were ineligible for the study.
Eligible patients were treated during 24 weeks with masitinib at a dose of 4.5 mg/kg/day (mg per kilo body weight per day) or with placebo. Treatment was administered as add-on therapy in patients who had been treated for a minimum of 6 months with a stable dose of cholinesterase inhibitors (donepezil, rivastigmine or galantamine) and/or memantine, with no changes foreseen in therapy throughout the study.
Primary analysis was based on the co-primary endpoints of: • Change from baseline in Alzheimer's Disease Cooperative Study Activities of Daily Living (ADCS-ADL) score. The ADCS-ADL assesses the competence of patients with Alzheimer's disease in basic and instrumental activities of daily living (ADLs). • Change from baseline in Alzheimer's Disease Assessment Scale-Cognitive Subscale (ADAS-Cog). The ADAS-Cog assesses cognition and memory.
Treatment effect (masitinib versus placebo) was assessed based on absolute change from baseline to week 24 by using an analysis of covariance model (ANCOVA linear model) with the following factors: treatment, baseline value, and stratification criteria of baseline MMSE score, age, ADCS-ADL total score, and ADAS-Cog total score.
For ADCS-ADL, the global score (i.e., the sum of 23 items rated by the caregiver) was used with a range from 0 to 78, wherein 78 implies full functioning with no impairment. Thus, a higher score signifies greater functional ability, while a lower score signifies greater (worse) impairment. Results are expressed as a least-squares means difference (δLSM) of absolute change in ADCS-ADL score from baseline; that is to say, the change over time in the ADCS-ADL score, or in other words the difference between the ADCS-ADL score at baseline (before treatment initiation) and the ADCS-ADL score after treatment with masitinib or with placebo. An increase in ADCS-ADL score with respect to baseline (i.e., a positive δLSM) indicates an improvement in the patient and therefore disease stability, whereas a decrease in ADCS-ADL score with respect to baseline (i.e., negative δLSM) indicates a worsening in the patient and therefore disease progression. Treatment-effect is reported as the difference between treatment-arms (ΔLSM) (calculated as δLSM[masitinib] minus δLSM[placebo]), with a positive value indicating a beneficial effect of treatment with masitinib as compared to treatment with placebo. In a scenario where both treatment-arms show worsening in activities of daily living (i.e., a negative δLSM), then a positive ΔLSM indicates a beneficial treatment effect for masitinib, i.e., the rate of decline in masitinib treated patients is slower than that of patients from the placebo-arm.
The comparison was carried out using the following information: • δLSM: least-squares means difference of absolute change in endpoint score at week 24 from baseline, either according to ADAS-Cog assessment or to ADCS-ADL assessment. • ΔLSM: Difference between treatment-arms (treatment-effect) calculated as δLSM[masitinib] minus δLSM[placebo]. • Δsub/Δoverall: Ratio of subpopulation's placebo-controlled treatment-effect (ΔLSM at W24 for masitinib 4.5 mg/kg/d parallel arm) versus overall study population's placebo-controlled treatment-effect (ΔLSM at W24 for masitinib 4.5 mg/kg/d parallel arm). […]

Cc1ccc(NC(=O)c2ccc(CN3CCN(C)CC3)cc2)cc1Nc1nc(-c2cccnc2)cs1 [masitinib, 4-(4-methylpiperazin-1-ylmethyl)-N-[4-methyl-3-(4-pyridin-3ylthiazol-2-ylamino)phenyl]benzamide]
δLSM (ADCS-ADL) (MMSE [12-20]): −0.4369
ΔLSM (ADCS-ADL) (MMSE [25-21]): +2.7435 points
ΔLSM (ADCS-ADL) (MMSE [25-21], listed as M4.5, 4.5 mg/kg/day): 2.7435 points
δLSM (ADCS-ADL) (MMSE [25-21]): 3.5738
ΔLSM (ADCS-ADL) (MMSE ≥13): 2.0496 points
δLSM (ADCS-ADL) (MMSE ≥13): 1.1204
ΔLSM (ADCS-ADL) (MMSE ≥14): +2.4046 points
ΔLSM (ADCS-ADL) (MMSE ≥14, listed as M4.5, 4.5 mg/kg/day): 2.4046 points
δLSM (ADCS-ADL) (MMSE ≥14): 1.3505
ΔLSM (ADCS-ADL) (MMSE ≥15): 2.2738 points
δLSM (ADCS-ADL) (MMSE ≥15): 1.3520
ΔLSM (ADCS-ADL) (MMSE ≥16): 2.5566 points
δLSM (ADCS-ADL) (MMSE ≥16): 1.6088
ΔLSM (ADCS-ADL) (MMSE ≥17): 2.2870 points
δLSM (ADCS-ADL) (MMSE ≥17): 1.0330
ΔLSM (ADCS-ADL) (Overall Population): 1.8190 points
δLSM (ADCS-ADL) (Overall Population): 1.0107
Δsub/Δoverall (ratio of ΔLSM (ADCS-ADL) at W24, Baseline ADCS-ADL >39 vs overall study population): 1.14
Δsub/Δoverall (ratio of ΔLSM (ADCS-ADL) at W24, Baseline ADCS-ADL >47 vs overall study population): 1.19
Δsub/Δoverall (ratio of ΔLSM (ADCS-ADL) at W24, Baseline ADCS-ADL >55 vs overall study population): 1.75
Δsub/Δoverall (ratio of ΔLSM (ADCS-ADL) at W24, Baseline ADCS-ADL ≥32 vs overall study population): 1.09
Δsub/Δoverall (ratio of ΔLSM (ADCS-ADL) at W24, Baseline ADCS-ADL ≥35 vs overall study population): 1.11
Δsub/Δoverall (ratio of ΔLSM (ADCS-ADL) at W24, Baseline ADCS-ADL ≥38 vs overall study population): 1.28
Δsub/Δoverall (ratio of ΔLSM (ADCS-ADL) at W24, Baseline ADCS-ADL ≥41 vs overall study population): 1.11
Δsub/Δoverall (ratio of ΔLSM (ADCS-ADL) at W24, Baseline ADCS-ADL ≥50 vs overall study population): 1.78
Δsub/Δoverall (ratio of ΔLSM (ADCS-ADL) at W24, MMSE [20-12] vs overall study population): 0.76
Δsub/Δoverall (ratio of ΔLSM (ADCS-ADL) at W24, MMSE [25-21] vs overall study population): 1.51
Δsub/Δoverall (ratio of ΔLSM (ADCS-ADL) at W24, MMSE ≥13 vs overall study population): 1.13
Δsub/Δoverall (ratio of ΔLSM (ADCS-ADL) at W24, MMSE ≥14 vs overall study population): 1.32
Δsub/Δoverall (ratio of ΔLSM (ADCS-ADL) at W24, MMSE ≥15 vs overall study population): 1.25
Δsub/Δoverall (ratio of ΔLSM (ADCS-ADL) at W24, MMSE ≥16 vs overall study population): 1.41
Δsub/Δoverall (ratio of ΔLSM (ADCS-ADL) at W24, MMSE ≥17 vs overall study population): 1.26
Δsub/Δoverall (percentage improvement) (ΔLSM (ADCS-ADL) at W24, Baseline ADCS-ADL >39 vs overall study population): (14%)
Δsub/Δoverall (percentage improvement) (ΔLSM (ADCS-ADL) at W24, Baseline ADCS-ADL >47 vs overall study population): (19%)
Δsub/Δoverall (percentage improvement) (ΔLSM (ADCS-ADL) at W24, Baseline ADCS-ADL >55 vs overall study population): 75%
Δsub/Δoverall (percentage improvement) (ΔLSM (ADCS-ADL) at W24, Baseline ADCS-ADL >55 vs overall study population, listed as M4.5): (75%)
Δsub/Δoverall (percentage improvement) (ΔLSM (ADCS-ADL) at W24, Baseline ADCS-ADL ≥32 vs overall study population): (9%)
Δsub/Δoverall (percentage improvement) (ΔLSM (ADCS-ADL) at W24, Baseline ADCS-ADL ≥35 vs overall study population): (11%)
Δsub/Δoverall (percentage improvement) (ΔLSM (ADCS-ADL) at W24, Baseline ADCS-ADL ≥38 vs overall study population): (28%)
Δsub/Δoverall (percentage improvement) (ΔLSM (ADCS-ADL) at W24, Baseline ADCS-ADL ≥41 vs overall study population): (11%)
Δsub/Δoverall (percentage improvement) (ΔLSM (ADCS-ADL) at W24, Baseline ADCS-ADL ≥50 vs overall study population): 78%
Δsub/Δoverall (percentage improvement) (ΔLSM (ADCS-ADL) at W24, Baseline ADCS-ADL ≥50 vs overall study population, listed as M4.5): (78%)
Δsub/Δoverall (percentage improvement) (ΔLSM (ADCS-ADL) at W24, MMSE [20-12] vs overall study population): (−24%)
Δsub/Δoverall (percentage improvement) (ΔLSM (ADCS-ADL) at W24, MMSE [25-21] vs overall study population): 51%
Δsub/Δoverall (percentage improvement) (ΔLSM (ADCS-ADL) at W24, MMSE [25-21] vs overall study population, listed as M4.5): (51%)
Δsub/Δoverall (percentage improvement) (ΔLSM (ADCS-ADL) at W24, MMSE ≥13 vs overall study population): (13%)
Δsub/Δoverall (percentage improvement) (ΔLSM (ADCS-ADL) at W24, MMSE ≥14 vs overall study population): 32%
Δsub/Δoverall (percentage improvement) (ΔLSM (ADCS-ADL) at W24, MMSE ≥14 vs overall study population, listed as M4.5): (32%)
Δsub/Δoverall (percentage improvement) (ΔLSM (ADCS-ADL) at W24, MMSE ≥15 vs overall study population): (25%)
Δsub/Δoverall (percentage improvement) (ΔLSM (ADCS-ADL) at W24, MMSE ≥16 vs overall study population): (41%)
Δsub/Δoverall (percentage improvement) (ΔLSM (ADCS-ADL) at W24, MMSE ≥17 vs overall study population): (26%)
improved benefit relative to complementary subpopulation (baseline ADAS-Cog ≤25 relative to >25): 84%
improved benefit relative to complementary subpopulation (baseline ADCS-ADL >39 relative to ≤39): 191%
improved benefit relative to complementary subpopulation (baseline ADCS-ADL >55 relative to ≤55): about 600%
improved benefit relative to complementary subpopulation (baseline MMSE 25 to 21 relative to MMSE 20 to 12, printed as 'between 99% to 66%'): 99%

Source: patent publication US20240058328A1, “MASITINIB FOR THE TREATMENT OF ALZHEIMER'S DISEASE” (AB SCIENCE, priority 2020, published 2024)
